These results are taken from patent US11697646B2, “Triazole N-linked carbamoyl cyclohexyl acids as LPA antagonists” (BRISTOL-MYERS SQUIBB COMPANY, priority 2017, dated 2023).

The target in this experiment is T1, human LPA1 (Homo sapiens, UniProt Q92633).
T1 construct: expressed in transfected cells; host or cells: Chinese hamster ovary (CHO) cells
In words: LPA1 functional antagonist assay (calcium flux). The format is cell-based. The following applies: read-out: hLPA1 IC50. Here is the method: The effectiveness of compounds of the present invention as LPA1 inhibitors can be determined in an LPA1 functional antagonist assay as follows:
The cells were then equilibrated to room temperature for 30 minutes before the assay. […] IC50 values were determined by fitting data to a 4-parameter logistic equation (GraphPad Prism, San Diego Calif.).

Setting [1] is: CHO cells overexpressing human LPA1, calcium flux induced by 10 nM LPA.
The mark [2] stands for this setting: human LPA1 functional antagonist assay.

Read-outs that look alike come from different tables or passages of the source.

T1 sequence (Q92633 whole entry): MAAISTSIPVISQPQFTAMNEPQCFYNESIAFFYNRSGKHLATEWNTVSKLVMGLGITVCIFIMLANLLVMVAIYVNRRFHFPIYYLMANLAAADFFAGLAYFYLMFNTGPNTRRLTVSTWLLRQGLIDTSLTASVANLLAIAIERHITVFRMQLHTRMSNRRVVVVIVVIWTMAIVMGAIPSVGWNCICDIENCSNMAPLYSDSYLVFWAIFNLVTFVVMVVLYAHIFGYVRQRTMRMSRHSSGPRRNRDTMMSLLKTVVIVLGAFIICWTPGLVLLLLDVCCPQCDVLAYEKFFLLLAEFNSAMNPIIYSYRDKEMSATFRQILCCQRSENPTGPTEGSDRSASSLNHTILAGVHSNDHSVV

In the case of `Cc1nc(-c2nnn(C)c2NC(=O)OCC(C)F)ccc1O[C@H]1CCC[C@H](C(=O)O)C1` (stereo partly drawn) [Example 143, (1S,3S)-3-((6-(5-(((2-fluoropropoxy)carbonyl)amino)-1-methyl-1H-1,2,3-triazol-4-yl)-2-methylpyridin-3-yl)oxy)cyclohexane-1-carboxylic acid], the IC50 under setting [1] stood at 478 nM.

For the molecule `Cc1nc(-c2nnn(C)c2NC(=O)OCCCF)ccc1O[C@H]1CCC[C@H](C(=O)O)C1` [Example 144, (1S,3S)-3-((6-(5-(((3-fluoropropoxy)carbonyl)amino)-1-methyl-1H-1,2,3-triazol-4-yl)-2-methylpyridin-3-yl)oxy)cyclohexane-1-carboxylic acid], under setting [1], the IC50 stood at 254 nM.

For the molecule `Cc1nc(-c2nnn(C)c2NC(=O)OCCC(F)(F)F)ccc1O[C@H]1CCC[C@H](C(=O)O)C1` [Example 145, (1S,3S)-3-((2-methyl-6-(1-methyl-5-(((3,3,3-trifluoropropoxy)carbonyl)amino)-1H-1,2,3-triazol-4-yl)pyridin-3-yl)oxy)cyclohexane-1-carboxylic acid], under setting [1], the IC50 came out at 43 nM.

For the molecule `Cc1nc(-c2nnn(C)c2NC(=O)N[C@H](C)C2CC2)ccc1O[C@H]1CCC[C@H](C(=O)O)C1` [Example 146, (1S,3S)-3-((6-(5-(3-((R)-1-cyclopropylethyl)ureido)-1-methyl-1H-1,2,3-triazol-4-yl)-2-methylpyridin-3-yl)oxy)cyclohexane-1-carboxylic acid], the half-inhibitory concentration (IC50) under setting [1] was determined as 306 nM.

On to `CCc1nc(-c2nnn(C)c2CNC(=O)N(C)CC2CCC2)ccc1O[C@H]1CCC[C@H](C(=O)O)C1` [Example 148, (1S,3S)-3-((6-(5-((3-(cyclobutyl-methyl)-3-methylureido)methyl)-1-methyl-1H-1,2,3-triazol-4-yl)-2-ethylpyridin-3-yl)oxy)cyclohexane-1-carboxylic acid], for which, under setting [1], the concentration for half-maximal inhibition (IC50) was found to be 62 nM.

For `CCc1nc(-c2nnn(C)c2CNC(=O)N(C)Cc2ccccc2)ccc1O[C@H]1CCC[C@H](C(=O)O)C1` [Example 149, (1S,3S)-3-((6-(5-((3-benzyl-3-methylureido)methyl)-1-methyl-1H-1,2,3-triazol-4-yl)-2-ethyl-pyridin-3-yl)oxy)cyclohexane-1-carboxylic acid], the 50% inhibitory concentration (IC50) under setting [1] came out at 143 nM.

As for `CCCCN(C)C(=O)NCc1c(-c2ccc(O[C@H]3CCC[C@H](C(=O)O)C3)c(CC)n2)nnn1C` [Example 150, (1S,3S)-3-((6-(5-((3-butyl-3-methylureido)methyl)-1-methyl-1H-1,2,3-triazol-4-yl)-2-ethyl-pyridin-3-yl)oxy)cyclohexane-1-carboxylic acid], the 50% inhibitory concentration (IC50) under setting [1] came out at 44 nM.

With `CCCCNC(=O)NCc1c(-c2ccc(O[C@H]3CCC[C@H](C(=O)O)C3)c(CC)n2)nnn1C` [Example 151, (1S,3S)-3-((6-(5-((3-butyl-ureido)methyl)-1-methyl-1H-1,2,3-triazol-4-yl)-2-ethylpyridin-3-yl)oxy)cyclohexane-1-carboxylic acid], the IC50 under setting [1] turned out to be 647 nM.

In the case of `CCc1nc(-c2nnn(C)c2CNC(=O)NCC2CC2)ccc1O[C@H]1CCC[C@H](C(=O)O)C1` [Example 152, (1S,3S)-3-((6-(5-((3-(cyclopropyl-methyl)ureido)methyl)-1-methyl-1H-1,2,3-triazol-4-yl)-2-ethyl-pyridin-3-yl)oxy)cyclohexane-1-carboxylic acid], the 50% inhibitory concentration (IC50) under setting [1] came out at 270 nM.

As for `CCc1nc(-c2nnn(C)c2CNC(=O)NCc2ccccc2)ccc1O[C@H]1CCC[C@H](C(=O)O)C1` [Example 153, (1S,3S)-3-((6-(5-((3-benzyl-ureido)methyl)-1-methyl-1H-1,2,3-triazol-4-yl)-2-ethylpyridin-3-yl)oxy)cyclohexane-1-carboxylic acid], the IC50 under setting [1] amounted to 107 nM.

Turning to `CC(COC(=O)NCc1c(-c2ncc(O[C@H]3CCC[C@H](C(=O)O)C3)cn2)nnn1C)CC(F)(F)F` (stereo partly drawn) [Example 154, (1S,3S)-3-((2-(1-methyl-5-((((4,4,4-trifluoro-2-methylbutoxy)carbonyl)amino)methyl)-1H-1,2,3-triazol-4-yl)pyrimidin-5-yl)oxy)cyclohexane-1-carboxylic acid], the IC50 under setting [2] amounted to 2900 nM.

For the molecule `Cc1nc(-c2nnn(C)c2CNC(=O)OCC(C)CC(F)(F)F)cnc1O[C@H]1CCC[C@H](C(=O)O)C1` (stereo partly drawn) [Example 155, (1S,3S)-3-((3-methyl-5-(1-methyl-5-((((4,4,4-trifluoro-2-methylbutoxy)carbonyl)amino)methyl)-1H-1,2,3-triazol-4-yl)pyrazin-2-yl)oxy)cyclohexane-1-carboxylic acid], under setting [2], the half-maximal inhibitory concentration (IC50) was determined as 85 nM.

As to `Cc1nc(-c2nnn(C)c2CNC(=O)OCC2CCC2)cnc1O[C@H]1CCC[C@H](C(=O)O)C1` [Example 156, (1S,3S)-3-((5-(5-((((cyclobutyl-methoxy)carbonyl)amino)methyl)-1-methyl-1H-1,2,3-triazol-4-yl)-3-methylpyrazin-2-yl)oxy)cyclohexane-1-carboxylic acid], the IC50 under setting [2] amounted to 213 nM.

For the molecule `Cc1nc(-c2nnn(C)c2CNC(=O)OCCC2CC2)ccc1O[C@H]1CCC[C@H](C(=O)O)C1` [Example 157, (1S,3S)-3-((6-(5-((((2-cyclopropyl-ethoxy)carbonyl)amino)methyl)-1-methyl-1H-1,2,3-triazol-4-yl)-2-methylpyridin-3-yl)oxy)cyclo-hexane-1-carboxylic acid], the IC50 under setting [2] was 19 nM.

As to `Cc1nc(-c2nnn(C)c2CNC(=O)OCCC(C)(C)C)cnc1O[C@H]1CCC[C@H](C(=O)O)C1` [Example 158, (1S,3S)-3-((5-(5-((((3,3-dimethyl-butoxy)carbonyl)amino)methyl)-1-methyl-1H-1,2,3-triazol-4-yl)-3-methylpyrazin-2-yl)oxy)cyclo-hexane-1-carboxylic acid], the IC50 under setting [2] worked out at 76 nM.

Regarding `Cc1nc(-c2nnn(C)c2CNC(=O)OCc2cccc(F)c2)cnc1O[C@H]1CCC[C@H](C(=O)O)C1` [Example 159, (1S,3S)-3-((5-(5-(((((3-fluorobenzyl)oxy)carbonyl)amino)methyl)-1-methyl-1H-1,2,3-triazol-4-yl)-3-methylpyrazin-2-yl)oxy)cyclo-hexane-1-carboxylic acid], the IC50 under setting [2] came out at 122 nM.

For the molecule `Cc1nc(-c2nnn(C)c2CNC(=O)OCCC2CC2)cnc1O[C@H]1CCC[C@H](C(=O)O)C1` [Example 160, (1S,3S)-3-((5-(5-((((2-cyclopropylethoxy)carbonyl)amino)methyl)-1-methyl-1H-1,2,3-triazol-4-yl)-3-methylpyrazin-2-yl)oxy)cyclo-hexane-1-carboxylic acid], the IC50 under setting [2] was determined as 66 nM.

Take `CC[C@H](C)COC(=O)NCc1c(-c2cnc(O[C@H]3CCC[C@H](C(=O)O)C3)c(C)n2)nnn1C` [Example 161, (1S,3S)-3-((3-methyl-5-(1-methyl-5-(((((S)-2-methylbutoxy)carbonyl)amino)methyl)-1H-1,2,3-triazol-4-yl)pyrazin-2-yl)oxy)cyclohexane-1-carboxylic acid]: the IC50 under setting [2] turned out to be 109 nM.

Turning to `Cc1nc(-c2nnn(C)c2CNC(=O)OCCCCF)ccc1O[C@H]1CCC[C@H](C(=O)O)C1` [Example 162, (1S,3S)-3-((6-(5-((((4-fluorobutoxy)carbonyl)amino)methyl)-1-methyl-1H-1,2,3-triazol-4-yl)-2-methyl-pyridin-3-yl)oxy)cyclohexane-1-carboxylic acid], the half-maximal inhibitory concentration (IC50) under setting [2] was determined as 60 nM.

`Cc1nc(-c2nnn(C)c2CNC(=O)OCC2(CCF)CC2)ccc1O[C@H]1CCC[C@H](C(=O)O)C1` [Example 163, (1S,3S)-3-((6-(5-(((((1-(2-fluoro-ethyl)cyclopropyl)methoxy)carbonyl)amino)methyl)-1-methyl-1H-1,2,3-triazol-4-yl)-2-methylpyridin-3-yl)oxy)cyclohexane-1-carboxylic acid]: the 50% inhibitory concentration (IC50) under setting [2] worked out at 88 nM.

As to `Cc1nc(-c2nnn(C)c2CNC(=O)OCC2CC2(C)C)ccc1O[C@H]1CCC[C@H](C(=O)O)C1` (stereo partly drawn) [Example 164, (1S,3S)-3-((6-(5-(((((2,2-dimethyl-cyclopropyl)methoxy)carbonyl)amino)methyl)-1-methyl-1H-1,2,3-triazol-4-yl)-2-methylpyridin-3-yl)oxy)cyclohexane-1-carboxylic acid], the IC50 under setting [2] was 65 nM.

Consider `CCC[C@H](C)OC(=O)NCc1c(-c2ccc(O[C@H]3CCC[C@H](C(=O)O)C3)c(C)n2)nnn1C` [Example 165, (1S,3S)-3((2-methyl-6-(1-methyl-5-((((((S)-pentan-2-yl)oxy)carbonyl)amino)methyl)-1H-1,2,3-triazol-4-yl)pyridin-3-yl)oxy)cyclohexane-1-carboxylic acid], for which the IC50 under setting [2] came to 34 nM.

`Cc1nc(-c2nnn(C)c2CNC(=O)OCCCCC(F)(F)F)ccc1O[C@H]1CCC[C@H](C(=O)O)C1` [Example 166, (1S,3S)-3-((2-methyl-6-(1-methyl-5-(((((5,5,5-trifluoropentyl)oxy)carbonyl)amino)methyl)-1H-1,2,3-triazol-4-yl)pyridin-3-yl)oxy)cyclohexane-1-carboxylic acid]: under setting [2], the IC50 amounted to 121 nM.

Consider `Cc1nc(-c2nnn(C)c2CNC(=O)O[C@H](C)C2CC2)ccc1O[C@H]1CCC[C@H](C(=O)O)C1` [Example 167, (1S,3S)-3-((6-(5-(((((R)-1-cyclo-propylethoxy)carbonyl)amino)methyl)-1-methyl-1H-1,2,3-triazol-4-yl)-2-methylpyridin-3-yl)oxy)cyclohexane-1-carboxylic acid], for which the half-inhibitory concentration (IC50) under setting [2] was 427 nM.

Take `Cc1nc(-c2nnn(C)c2CNC(=O)OC2CC(C)(C)C2)ccc1O[C@H]1CCC[C@H](C(=O)O)C1` [Example 168, (1S,3S)-3-((6-(5-((((3,3-dimethyl-cyclobutoxy)carbonyl)amino)methyl)-1-methyl-1H-1,2,3-triazol-4-yl)-2-methylpyridin-3-yl)oxy)cyclo-hexane-1-carboxylic acid]: the IC50 under setting [2] amounted to 90 nM.

Consider `Cc1nc(-c2nnn(C)c2CNC(=O)OCCCC(F)(F)F)ccc1O[C@H]1CCC[C@H](C(=O)O)C1` [Example 169, (1S,3S)-3-((2-methyl-6-(1-methyl-5-((((4,4,4-trifluorobutoxy)carbonyl)amino)methyl)-1H-1,2,3-triazol-4-yl)pyridin-3-yl)oxy)cyclohexane-1-carboxylic acid], for which the IC50 under setting [2] was found to be 55 nM.
